Results on 9 compounds are retold here after US20100093662A1, “NOVEL AMPHIPHILIC CYCLODEXTRIN DERIVATIVES” (CENTRE NATIONAL DE LA RECHERCHE SCIENTIFIQUE-CNRS-, priority 2006, published 2010).

The series is described as follows: Size and polydispersion of white homogenous nanospheres (quasi-elastic diffusion of light), physical stability over time. In kind it is physicochemical. On the procedure: The method used to prepare white homogenous nanospheres consists in introducing an organic phase of acetone (or tetrahydrofurane) and an amphiphilic cyclodextrin derivative from the invention (1 mg·mL^−1) in an aqueous phase of equivalent volume or a double volume (distilled water), under magnetic stirring (500 r.p.m.) at 25° C. After nanoprecipitation, the organic solvent is eliminated under reduced pressure at +35° C. The aqueous suspension presenting an opalescent to milky appearance (according to the products used) is then concentrated until the final volume desired is obtained, then filtered on a 0.8 μm filter (Millex AA, Millipore, France).
The colloid suspensions are then characterised as regards the granulometry (mean size and polydisperion) and, when they incorporate loaded amphiphilic cyclodextrins, by their zeta potential. The characterisation is carried out using the following methods:
The quasi-elastic diffusion of light is used. A Zetasizer 3000 apparatus equipped with a K7132 correlator (Malvern Instruments, RU) was used. The conditions for measurement are as follows: angle of detection 90°, temperature 25±0.1° C., apparent viscosity 0.89 mPa·s. Before measuring the size, samples are diluted in distilled water if necessary. The hydrodynamic diameter (mean Z) and polydispersion index (PI) of the nanoparticles in suspension are calculated in intensity by the cumulant method by carrying out 3 measurements on the same sample. The value of the hydrodynamic diameter is calculated using the measurement of the translational coefficient of diffusion of particles with Brownian movement. An NanoZS apparatus (Malvern Instruments) was also used to measure the size of the nanocapsules. In the same way, the samples are diluted before measurement, if necessary in water added to Montanox 80 (trade mark).
The studies on the physical stability of particles were carried out over periods ranging from 1 month to 8 months. The corresponding data for a series of amphiphilic cyclodextrins in the invention are indicated in Table 1 providing the granulometric characteristics (mean size and polydispersion index or mean PI), with evolution over time, of different homogenous nanospheres derived from the compounds indicated in the left column, the reference number for said compounds corresponding to those of the compounds described in the above examples.

`CCCCCC(=O)O[C@@H]1[C@@H](OC(=O)CCCCC)[C@H]2O[C@H]3[C@H](OC(=O)CCCCC)[C@@H](OC(=O)CCCCC)[C@@H](O[C@H]4[C@H](OC(=O)CCCCC)[C@@H](OC(=O)CCCCC)[C@@H](O[C@H]5[C@H](OC(=O)CCCCC)[C@@H](OC(=O)CCCCC)[C@@H](O[C@H]6[C@H](OC(=O)CCCCC)[C@@H](OC(=O)CCCCC)[C@@H](O[C@H]7[C@H](OC(=O)CCCCC)[C@@H](OC(=O)CCCCC)[C@@H](O[C@H]8[C@H](OC(=O)CCCCC)[C@@H](OC(=O)CCCCC)[C@@H](O[C@@H]1[C@@H](CBr)O2)O[C@@H]8CBr)O[C@@H]7CBr)O[C@@H]6CBr)O[C@@H]5CBr)O[C@@H]4CBr)O[C@@H]3CBr` [compound no. 2, heptakis(6-bromo-6-desoxy-2,3-di-O-hexanoyl)cyclomaltoheptaose]: the “Mean size ± standard deviation (n = 3)” value is, setting by setting: (8 months) 182 ± 22 nm; (initial) 238 ± 29 nm. For the same compound, the “PI (polydispersion index)” value (8 months) was 0.01 and the “PI (polydispersion index)” value (initial) is given as 0.02.
On to `CCCCCCCCCCCCCC(=O)O[C@@H]1[C@@H](OC(=O)CCCCCCCCCCCCC)[C@H]2O[C@H]3[C@H](OC(=O)CCCCCCCCCCCCC)[C@@H](OC(=O)CCCCCCCCCCCCC)[C@@H](O[C@H]4[C@H](OC(=O)CCCCCCCCCCCCC)[C@@H](OC(=O)CCCCCCCCCCCCC)[C@@H](O[C@H]5[C@H](OC(=O)CCCCCCCCCCCCC)[C@@H](OC(=O)CCCCCCCCCCCCC)[C@@H](O[C@H]6[C@H](OC(=O)CCCCCCCCCCCCC)[C@@H](OC(=O)CCCCCCCCCCCCC)[C@@H](O[C@H]7[C@H](OC(=O)CCCCCCCCCCCCC)[C@@H](OC(=O)CCCCCCCCCCCCC)[C@@H](O[C@H]8[C@H](OC(=O)CCCCCCCCCCCCC)[C@@H](OC(=O)CCCCCCCCCCCCC)[C@@H](O[C@@H]1[C@@H](CI)O2)O[C@@H]8CI)O[C@@H]7CI)O[C@@H]6CI)O[C@@H]5CI)O[C@@H]4CI)O[C@@H]3CI` [compound no. 4, heptakis(6-desoxy-6-iodo-2,3-di-O-myristoyl)cyclomaltoheptaose], for which, for the setting “3 months”, the “IP (polydispersion index)” value worked out at 0.03 and the “Mean size ± standard deviation (n = 3)” value is on record as 206 ± 20 nm. Moreover, where the note is “6 months”, the “IP (polydispersion index)” value is given as 0.06 and the “Mean size ± standard deviation (n = 3)” value was determined as 227 ± 26 nm. Also, where the note is “initial”, the “Mean size ± standard deviation (n = 3)” value is given as 217 ± 17 nm and the “PI (polydispersion index)” value is on record as 0.04.
For the compound “heptakis[6-(2-tert-butoxycarbonylaminoethylthio)-6-desoxy-2,3-di-O-myristoyl]cyclomaltoheptaose [compound no. 10]”, for the setting “3 months”, the “IP (polydispersion index)” value worked out at 0.07 and the “Mean size ± standard deviation (n = 3)” value turned out to be 207 ± 1 nm. In addition, under “6 months”, the “IP (polydispersion index)” value was determined as 0.32 and the “Mean size ± standard deviation (n = 3)” value is reported as 269 ± 64 nm. Further, where the note is “initial”, the “Mean size ± standard deviation (n = 3)” value was 212 ± 14 nm and the “PI (polydispersion index)” value is listed as 0.11.
Consider `CCCCCC(=O)O[C@@H]1[C@@H](OC(=O)CCCCC)[C@H]2O[C@H]3[C@H](OC(=O)CCCCC)[C@@H](OC(=O)CCCCC)[C@@H](O[C@H]4[C@H](OC(=O)CCCCC)[C@@H](OC(=O)CCCCC)[C@@H](O[C@H]5[C@H](OC(=O)CCCCC)[C@@H](OC(=O)CCCCC)[C@@H](O[C@H]6[C@H](OC(=O)CCCCC)[C@@H](OC(=O)CCCCC)[C@@H](O[C@H]7[C@H](OC(=O)CCCCC)[C@@H](OC(=O)CCCCC)[C@@H](O[C@H]8[C@H](OC(=O)CCCCC)[C@@H](OC(=O)CCCCC)[C@@H](O[C@@H]1[C@@H](CSCCNC(=O)OC(C)(C)C)O2)O[C@@H]8CSCCNC(=O)OC(C)(C)C)O[C@@H]7CSCCNC(=O)OC(C)(C)C)O[C@@H]6CSCCNC(=O)OC(C)(C)C)O[C@@H]5CSCCNC(=O)OC(C)(C)C)O[C@@H]4CSCCNC(=O)OC(C)(C)C)O[C@@H]3CSCCNC(=O)OC(C)(C)C` [compound no. 7, heptakis[6-(2-tert-butoxycarbonylaminoethylthio)-6-desoxy-2,3-di-0-hexanoyl]cyclomaltoheptaose], for which, for the setting “8 months”, the “Mean size ± standard deviation (n = 3)” value turned out to be 194 ± 2 nm and the “PI (polydispersion index)” value stood at 0.02. Under “initial”, the “Mean size ± standard deviation (n = 3)” value is given as 283 ± 29 nm and the “PI (polydispersion index)” value is given as 0.06.
As to “heptakis(6-azido-6-desoxy-2,3-di-0-myristoyl)cyclomaltoheptaose [compound no. 6]”, the “IP (polydispersion index)” value is on record as 0.06 (3 months) and 0.04 (6 months). Besides, the “Mean size ± standard deviation (n = 3)” value is, setting by setting: (3 months) 157 ± 8 nm; (6 months) 198 ± 12 nm; (initial) 171 ± 9 nm. In addition, the “PI (polydispersion index)” value (initial) was found to be 0.03.
Turning to `CCCCCCCCCCCCCC(=O)O[C@@H]1[C@@H](OC(=O)CCCCCCCCCCCCC)[C@H]2O[C@H]3[C@H](OC(=O)CCCCCCCCCCCCC)[C@@H](OC(=O)CCCCCCCCCCCCC)[C@@H](O[C@H]4[C@H](OC(=O)CCCCCCCCCCCCC)[C@@H](OC(=O)CCCCCCCCCCCCC)[C@@H](O[C@H]5[C@H](OC(=O)CCCCCCCCCCCCC)[C@@H](OC(=O)CCCCCCCCCCCCC)[C@@H](O[C@H]6[C@H](OC(=O)CCCCCCCCCCCCC)[C@@H](OC(=O)CCCCCCCCCCCCC)[C@@H](O[C@H]7[C@H](OC(=O)CCCCCCCCCCCCC)[C@@H](OC(=O)CCCCCCCCCCCCC)[C@@H](O[C@H]8[C@H](OC(=O)CCCCCCCCCCCCC)[C@@H](OC(=O)CCCCCCCCCCCCC)[C@@H](O[C@@H]1[C@@H](CBr)O2)O[C@@H]8CBr)O[C@@H]7CBr)O[C@@H]6CBr)O[C@@H]5CBr)O[C@@H]4CBr)O[C@@H]3CBr` [compound no. 5, heptakis(6-bromo-6-desoxy-2,3-di-O-myristoyl)cyclomaltoheptaose], the “IP (polydispersion index)” value runs as follows: (3 months) 0.05; (6 months) 0.03. For the same compound, the “Mean size ± standard deviation (n = 3)” value was 232 ± 22 nm (3 months), 242 ± 27 nm (6 months) and 244 ± 13 nm (initial). Moreover, the “PI (polydispersion index)” value (initial) was 0.13.
In the case of `CCCCCC(=O)O[C@@H]1[C@@H](OC(=O)CCCCC)[C@H]2O[C@H]3[C@H](OC(=O)CCCCC)[C@@H](OC(=O)CCCCC)[C@@H](O[C@H]4[C@H](OC(=O)CCCCC)[C@@H](OC(=O)CCCCC)[C@@H](O[C@H]5[C@H](OC(=O)CCCCC)[C@@H](OC(=O)CCCCC)[C@@H](O[C@H]6[C@H](OC(=O)CCCCC)[C@@H](OC(=O)CCCCC)[C@@H](O[C@H]7[C@H](OC(=O)CCCCC)[C@@H](OC(=O)CCCCC)[C@@H](O[C@H]8[C@H](OC(=O)CCCCC)[C@@H](OC(=O)CCCCC)[C@@H](O[C@@H]1[C@@H](CI)O2)O[C@@H]8CI)O[C@@H]7CI)O[C@@H]6CI)O[C@@H]5CI)O[C@@H]4CI)O[C@@H]3CI` [compound no. 1, heptakis(6-desoxy-2,3-di-0-hexanoyl-6-iodo) cyclomaltoheptaose], for the setting “8 months”, the “Mean size ± standard deviation (n = 3)” value was determined as 236 ± 13 nm and the “PI (polydispersion index)” value was found to be 0.03. In addition, where the note is “initial”, the “Mean size ± standard deviation (n = 3)” value was found to be 251 ± 62 nm and the “PI (polydispersion index)” value is on record as 0.08.
Take `CCCCCC(=O)OC1C2OC(CO)C(OC3OC(CO)C(OC4OC(CO)C(OC5OC(CO)C(OC6OC(CSCCNC(=S)NCCSCC7OC8OC9C(CO)OC(OC%10C(CO)OC(OC%11C(CO)OC(OC%12C(CO)OC(OC%13C(CO)OC(OC%14C(CO)OC(OC7C(O)C8O)C(O)C%14O)C(O)C%13O)C(O)C%12O)C(O)C%11O)C(O)C%10O)C(O)C9O)C(OC7OC(CO)C(OC8OC(CO)C(O2)C(OC(=O)CCCCC)C8OC(=O)CCCCC)C(OC(=O)CCCCC)C7OC(=O)CCCCC)C(OC(=O)CCCCC)C6OC(=O)CCCCC)C(OC(=O)CCCCC)C5OC(=O)CCCCC)C(OC(=O)CCCCC)C4OC(=O)CCCCC)C(OC(=O)CCCCC)C3OC(=O)CCCCC)C1OC(=O)CCCCC` (centres unmarked) [compound no. 26]: where the note is “initial”, the “Mean size ± standard deviation (n = 3)” value is recorded as 100 ± 20 nm and the “PI (polydispersion index)” value was found to be 0.06.
As for `CCCCCC(=O)O[C@@H]1[C@@H](OC(=O)CCCCC)[C@H]2O[C@H]3[C@H](OC(=O)CCCCC)[C@@H](OC(=O)CCCCC)[C@@H](O[C@H]4[C@H](OC(=O)CCCCC)[C@@H](OC(=O)CCCCC)[C@@H](O[C@H]5[C@H](OC(=O)CCCCC)[C@@H](OC(=O)CCCCC)[C@@H](O[C@H]6[C@H](OC(=O)CCCCC)[C@@H](OC(=O)CCCCC)[C@@H](O[C@H]7[C@H](OC(=O)CCCCC)[C@@H](OC(=O)CCCCC)[C@@H](O[C@H]8[C@H](OC(=O)CCCCC)[C@@H](OC(=O)CCCCC)[C@@H](O[C@@H]1[C@@H](CN=[N+]=[N-])O2)O[C@@H]8CN=[N+]=[N-])O[C@@H]7CN=[N+]=[N-])O[C@@H]6CN=[N+]=[N-])O[C@@H]5CN=[N+]=[N-])O[C@@H]4CN=[N+]=[N-])O[C@@H]3CN=[N+]=[N-]` [compound no. 3, heptakis(6-azido-6-desoxy-2,3-di-O-hexanoyl)cyclomaltoheptaose], where the note is “3 months”, the “IP (polydispersion index)” value is 0.06 and the “Mean size ± standard deviation (n = 3)” value turned out to be 157 ± 8 nm. Moreover, for the setting “6 months”, the “IP (polydispersion index)” value stood at 0.18 and the “Mean size ± standard deviation (n = 3)” value turned out to be 206 ± 17 nm. Besides, under “initial”, the “Mean size ± standard deviation (n = 3)” value stood at 181 ± 5 nm and the “PI (polydispersion index)” value is reported as 0.08.
